Laboratory results from paper PMC5677563 (Inorganic chemistry, 2017).

Molecular target: T1, cytochrome c′ (AXCP) (Achromobacter xylosoxidans, UniProt P00138, L16G)
T1 sequence (P00138 1-127 L16G): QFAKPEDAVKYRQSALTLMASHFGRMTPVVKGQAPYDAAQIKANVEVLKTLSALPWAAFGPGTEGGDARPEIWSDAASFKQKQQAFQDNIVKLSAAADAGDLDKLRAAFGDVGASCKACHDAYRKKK
Assay: UV-vis titration
Assay type: binding

## O=NO [nitrite]
  Kd: 500 ± 150 µM
